Here are results for one compound from patent US10617668B2, “Pharmaceutical formulations” (Janssen Pharmaceutica NV, priority 2010, dated 2020).

The nature of this data set: In vivo pharmacokinetics of oral formulations in healthy human subjects. Here is the method:
The three dose levels included 25 mg (representative formulation listed in Table 1.2), 200 mg (representative formulation listed in Table 1.3) and 400 mg of the drug compound.

Structures are written as SMILES.

As for `Cc1ccc(C2O[C@H](CO)[C@@H](O)[C@H](O)[C@H]2O)cc1Cc1ccc(-c2ccc(F)cc2)s1` (stereo partly drawn) [compound of Formula (I-S)], the “mean AUCinf values across formulations and food conditions” value (all doses (25 mg, 200 mg and 400 mg), fed or fasting) is “comparable”. For the same compound, the “effect of food on the extent of bioavailability” value (human subjects, fed versus fasted) is given as “no significant effect”. For the setting “human, plasma, oral, all treatment regimens regardless of formulation and food intake, read-out: mean t1/2”, the half-life fell in the range of 8 to 12 h.
